# Active and inactive are the calls of the source. The rule behind the calls is not given here.
# Key:
# [1] = tested on: P388; experiment: Antitumor activity against mouse P388 cells implanted in mouse assessed as increase in life span at 60 mg/kg, ip dosed daily for 5 days administered 24 hrs after tumor implantation; assay type: functional; details: route intraperitoneal
# [2] = tested on: P388; experiment: Antitumor activity against mouse P388 cells implanted in mouse assessed as increase in life span at 20 mg/kg, ip dosed daily for 5 days administered 24 hrs after tumor implantation; assay type: functional; details: route intraperitoneal
# [3] = tested on: P388; experiment: Antitumor activity against mouse P388 cells implanted in mouse assessed as increase in life span at 10 mg/kg, ip dosed daily for 5 days administered 24 hrs after tumor implantation; assay type: functional; details: route intraperitoneal
# [4] = tested on: Mus musculus; experiment: Toxicity in mouse P388 cells implanted mouse assessed as mean ascites volume at 40 mg/kg, ip dosed daily for 5 days administered 24 hrs after tumor implantation; assay type: organism-based; parameters: dose 40 mg/kg, route intraperitoneal; details: in vivo
# [5] = tested on: Mus musculus; experiment: Toxicity in mouse P388 cells implanted mouse assessed as mean ascites volume at 20 mg/kg, ip dosed daily for 5 days administered 24 hrs after tumor implantation; assay type: organism-based; parameters: dose 20 mg/kg, route intraperitoneal; details: in vivo
# [6] = tested on: Mus musculus; experiment: Toxicity in mouse P388 cells implanted mouse assessed as mean ascites volume at 10 mg/kg, ip dosed daily for 5 days administered 24 hrs after tumor implantation; assay type: organism-based; parameters: dose 10 mg/kg, route intraperitoneal; details: in vivo
# [7] = tested on: Mus musculus; experiment: Toxicity in mouse Ehrlich carcinoma cells implanted mouse assessed as mean ascites volume at 50 mg/kg, ip dosed daily for 5 days administered 48 hrs after tumor implantation; assay type: organism-based; parameters: dose 50 mg/kg, route intraperitoneal; details: in vivo
# [8] = tested on: Mus musculus; experiment: Toxicity in mouse P388 cells implanted mouse assessed as mean spleen weight at 60 mg/kg, ip dosed daily for 5 days administered 24 hrs after tumor implantation; assay type: organism-based; parameters: dose 60 mg/kg, route intraperitoneal; details: in vivo
# [9] = tested on: Mus musculus; experiment: Toxicity in mouse P388 cells implanted mouse assessed as mean spleen weight at 10 mg/kg, ip dosed daily for 5 days administered 24 hrs after tumor implantation; assay type: organism-based; parameters: dose 10 mg/kg, route intraperitoneal; details: in vivo
# [10] = tested on: Mus musculus; experiment: Toxicity in mouse P388 cells implanted mouse assessed as mouse mortality at 40 mg/kg, ip dosed daily for 5 days administered 24 hrs after tumor implantation; assay type: organism-based; parameters: dose 40 mg/kg, route intraperitoneal; details: in vivo
# [11] = tested on: Lewis lung carcinoma cell line; experiment: Antitumor activity against mouse LLC cells implanted in mouse assessed as tumor growth inhibition at 40 mg/kg, ip dosed daily for 5 days measured 1 day after treatment termination; assay type: functional; details: route intraperitoneal, read-out: TGI
# [12] = Antitumor activity against mouse CA-755 cells implanted in mouse assessed as tumor growth inhibition at 40 mg/kg, ip dosed daily for 5 days measured 5 days after treatment termination; assay type: functional; details: CA-755, ip, 120 h, route intraperitoneal, read-out: TGI
# [13] = tested on: Lewis lung carcinoma cell line; experiment: Antitumor activity against mouse LLC cells implanted in mouse assessed as tumor growth inhibition at 40 mg/kg, ip dosed daily for 5 days measured 12 days after treatment termination; assay type: functional; details: route intraperitoneal, read-out: TGI
# [14] = Antitumor activity against mouse AKATOL cells implanted in mouse assessed as tumor growth inhibition at 40 mg/kg, ip dosed daily for 5 days measured 16 days after treatment termination; assay type: functional; details: route intraperitoneal, read-out: TGI
# [15] = tested on: Lewis lung carcinoma cell line; experiment: Antitumor activity against mouse LLC cells implanted in mouse assessed as tumor growth inhibition at 40 mg/kg, ip dosed daily for 5 days measured 16 days after treatment termination; assay type: functional; details: route intraperitoneal, read-out: TGI
# [16] = tested on: Lewis lung carcinoma cell line; experiment: Antitumor activity against mouse LLC cells implanted in mouse assessed as increase in life span at 40 mg/kg, ip dosed daily for 5 days; assay type: functional; details: 120 h, route intraperitoneal
# [17] = tested on: Lewis lung carcinoma cell line; experiment: Antitumor activity against mouse LLC cells implanted in mouse assessed as tumor growth inhibition at 40 mg/kg, ip dosed daily for 5 days measured 19 days after treatment termination; assay type: functional; details: route intraperitoneal, read-out: TGI
# [18] = tested on: Mus musculus; experiment: Toxicity in mouse LLC cells implanted mouse assessed as mouse mortality at 40 mg/kg, ip dosed daily for 5 days; assay type: organism-based; parameters: dose 40 mg/kg, route intraperitoneal; details: in vivo, 120 h
# [19] = tested on: CCRF-CEM; experiment: Growth inhibition of human CCRF-CEM cells; assay type: functional
# [20] = tested on: HL-60(TB); experiment: Growth inhibition of human HL-60(TB) cells; assay type: functional
# [21] = tested on: HOP-62; experiment: Growth inhibition of human HOP62 cells; assay type: functional
# [22] = Growth inhibition of human HOP92 cells; assay type: functional
# [23] = tested on: NCI-H460; experiment: Growth inhibition of human NCI-H460 cells; assay type: functional
# [24] = tested on: NCI60; experiment: Cytotoxicity against human NCI60 cells assessed as cell growth at 10 uM; assay type: functional
# [25] = tested on: KM12; experiment: Growth inhibition of human KM12 cells; assay type: functional
# [26] = tested on: U-251; experiment: Growth inhibition of human U251 cells; assay type: functional
# [27] = Growth inhibition of human LOXIMVI cells; assay type: functional; details: LOX IMVI
# [28] = tested on: Malme-3M; experiment: Growth inhibition of human MALME-3M cells; assay type: functional
# [29] = tested on: SK-MEL-28; experiment: Growth inhibition of human SK-MEL-28 cells; assay type: functional
# [30] = tested on: SK-MEL-5; experiment: Growth inhibition of human SK-MEL-5 cells; assay type: functional
# [31] = Growth inhibition of human UACC62 cells; assay type: functional
# [32] = Growth inhibition of human OVCAR3 cells; assay type: functional
# [33] = Growth inhibition of human OVCAR4 cells; assay type: functional, OVCAR-4
# [34] = Growth inhibition of human OVCAR5 cells; assay type: functional
# [35] = Growth inhibition of human OVCAR8 cells; assay type: functional, OVCAR-8
# [36] = tested on: 786-0; experiment: Growth inhibition of human 786-0 cells; assay type: functional
# [37] = tested on: ACHN; experiment: Growth inhibition of human ACHN cells; assay type: functional
# [38] = tested on: CAKI-1; experiment: Growth inhibition of human CAKI-1 cells; assay type: functional
# [39] = tested on: TK-10; experiment: Growth inhibition of human TK10 cells; assay type: functional
# [40] = Growth inhibition of human UO31 cells; assay type: functional
# [41] = Growth inhibition of human BT549 cells; assay type: functional
# [42] = read-out: pLC50 (the source's name) (converted)
compound,measurement,setting,value
COC(=O)[C@]1(C)CCC[C@]2(C)[C@H]3C[C@H]4C(C(C)C)=C[C@]3(CC[C@H]21)[C@@H]1/C(=N/O)CC/C(=N\O)[C@@H]14,ILS at 60 mg/kg,[1],-10%
same,ILS at 20 mg/kg,[2],-4%
same,ILS at 10 mg/kg,[3],-4%
same,Activity,[4],1.2 mL
same,Activity,[5],0.57 mL
same,Activity,[6],1.3 mL
same,Activity,[7],0.63 mL
same,Activity,[8],144 mg
same,Activity,[9],95 mg
same,Activity,[10],Non-toxic
same,inhibition in vivo at 40 mg/kg,[11],47%
same,inhibition in vivo at 40 mg/kg,[12],72%
same,inhibition in vivo at 40 mg/kg,[13],30%
same,inhibition in vivo at 40 mg/kg,[14],47%
same,inhibition in vivo at 40 mg/kg,[15],34%
same,ILS at 40 mg/kg,[16],18%
same,inhibition in vivo at 40 mg/kg,[17],37%
same,Activity,[18],Non-toxic
same,GI50,[19],2.4 µM
same,CC50,[19]; [42],50.1 µM
same,TGI,[19]; read-out: pTGI (converted),7.08 µM
same,GI50,[20],1.95 µM
same,CC50,[20]; [42],36.3 µM
same,TGI,[20]; read-out: pTGI (converted),4.57 µM
same,GI50,[21],15.1 µM
same,CC50,[21]; [42],95.5 µM
same,TGI,[21]; read-out: pTGI (converted),38 µM
same,GI50,[22]; HOP-92,2.09 µM
same,CC50,"[22]; HOP-92, read-out: pLC50 (the source's name) (converted)",39.8 µM
same,TGI,"[22]; HOP-92, read-out: pTGI (converted)",5.01 µM
same,GI50,[23],2.29 µM
same,CC50,[23]; [42],46.8 µM
same,TGI,[23]; read-out: pTGI,5.25 µM
same,Activity,[24],Active
same,GI50,[25],3.39 µM
same,CC50,[25]; [42],34.7 µM
same,TGI,[25]; read-out: pTGI (converted),10.7 µM
same,GI50,[26],4.07 µM
same,CC50,[26]; [42],39.8 µM
same,TGI,[26]; read-out: pTGI (converted),15.1 µM
same,GI50,[27],2 µM
same,CC50,[27]; [42],7.76 µM
same,TGI,[27]; read-out: pTGI (converted),3.98 µM
same,GI50,[28],5.89 µM
same,CC50,[28]; [42],50.1 µM
same,TGI,[28]; read-out: pTGI (converted),20 µM
same,GI50,[29],9.33 µM
same,CC50,[29]; [42],53.7 µM
same,TGI,[29]; read-out: pTGI (converted),22.9 µM
same,GI50,[30],3.09 µM
same,CC50,[30]; [42],36.3 µM
same,TGI,[30]; read-out: pTGI (converted),11.5 µM
same,GI50,[31]; UACC-62,4.68 µM
same,CC50,"[31]; UACC-62, read-out: pLC50 (the source's name) (converted)",67.6 µM
same,TGI,"[31]; UACC-62, read-out: pTGI (converted)",22.4 µM
same,GI50,[32]; OVCAR-3,2.4 µM
same,CC50,"[32]; OVCAR-3, read-out: pLC50 (the source's name) (converted)",15.8 µM
same,TGI,"[32]; OVCAR-3, read-out: pTGI (converted)",5.37 µM
same,GI50,[33]; OVCAR-4,3.55 µM
same,CC50,"[33]; OVCAR-4, read-out: pLC50 (converted)",> 100 µM
same,TGI,"[33]; OVCAR-4, read-out: pTGI (converted)",19.1 µM
same,GI50,[34]; OVCAR-5,5.62 µM
same,CC50,"[34]; OVCAR-5, read-out: pLC50 (the source's name) (converted)",63.1 µM
same,TGI,"[34]; OVCAR-5, read-out: pTGI (converted)",20 µM
same,GI50,[35]; OVCAR-8,3.24 µM
same,CC50,"[35]; OVCAR-8, read-out: pLC50 (converted)",> 100 µM
same,TGI,"[35]; OVCAR-8, read-out: pTGI (converted)",12.6 µM
same,GI50,[36],5.75 µM
same,CC50,[36]; [42],53.7 µM
same,TGI,[36]; read-out: pTGI (converted),19.5 µM
same,GI50,[37],3.31 µM
same,CC50,[37]; [42],32.4 µM
same,TGI,[37]; read-out: pTGI (converted),10.5 µM
same,GI50,[38]; CAKI-1,7.08 µM
same,CC50,"[38]; CAKI-1, read-out: pLC50 (converted)",> 100 µM
same,TGI,"[38]; CAKI-1, read-out: pTGI (converted)",32.4 µM
same,GI50,[39],9.12 µM
same,CC50,[39]; [42],56.2 µM
same,TGI,[39]; read-out: pTGI (converted),22.9 µM
same,GI50,[40]; UO-31,4.9 µM
same,CC50,"[40]; UO-31, read-out: pLC50 (the source's name) (converted)",75.9 µM
same,TGI,"[40]; UO-31, read-out: pTGI (converted)",20.9 µM
same,GI50,[41]; BT-549,3.55 µM
same,CC50,"[41]; BT-549, read-out: pLC50 (the source's name) (converted)",36.3 µM
same,TGI,"[41]; BT-549, read-out: pTGI (converted)",11.2 µM

# Reference: ChEMBL document CHEMBL3352746, “Synthesis and anticancer activity of quinopimaric and maleopimaric acids’ derivatives” (Bioorg Med Chem, 2014)
